Data: patent US20050060772A1, “Regulation of ethylene sensitivity during leaf and flower abscission” (priority 2001, published 2005)
Entries after “also recorded” stand apart in the source; their conditions may differ.

Tests used:
TCTR1 antisense plants = experiment: Inducible leaf abscission in TCTR1 antisense tomato plants; settings: for rate of leaf abscission compared with EIN3 over-expressing plants: CTR1/TCTR1 antisense plants; for induction of leaf abscission: TCTR1 antisense under the three inducible promoters
[1] = test system: transgenic tomato flowers (EIN2 over-expression / co-suppression); settings: transgenic flowers treated with ethylene (FIG. 1: 10 ppm, 16 hrs)
Procedure: (§1) Flower clusters were cut from the plant, placed in a vial of water, and treated with 10 ppm ethylene for 16 hrs.
(§2) Preliminary work was conducted in tomato to test the efficacy of these approaches.

wild-type tomato flowers = settings: wild-type flowers treated with ethylene (FIG. 1: 10 ppm, 16 hrs)
Procedure: as §1, §2

Structure (SMILES) | rate of leaf abscission compared with EIN3 over-expressing plants (TCTR1 antisense plants) | induction of leaf abscission (TCTR1 antisense plants) | time flowers remained attached to the pedicel after treatment [1] | time to flower abscission after treatment (wild-type tomato flowers) [h]
CC(C)CC[C@@H](O)[C@](C)(O)[C@H]1CC[C@@]2(O)C3=CC(=O)[C@]4(O)C[C@@H](O)[C@@H](O)C[C@]4(C)[C@H]3[C@H](O)C[C@]12C [muristeroneA] | less rapid; also recorded: not as rapid | induced leaf abscission |  | 
C=C [ethylene] |  |  | at least 5 days | 24
CCO [ethanol] | less rapid; also recorded: not as rapid | induced leaf abscission |  | 
